How the values were obtained:
[1] = Solid state stability, PXRD; assay type: physicochemical; design: key: X: crystalline; S: stable
Experimental: Thus, the X-ray diffraction patterns of the co-crystals of provided herein were measured on a PANalytical X'PertPRO Powder X-ray diffractometer equipped with goniometer of θ/θ configuration and X'celerator detector. The Cu-anode X-ray tube was operated at 45 kV and 40 mA. The experiments were conducted over the 2θ range of 2.0°-50.0°, 0.030° step size and 189.865 time per step (seconds) and all the co-crystals were characterized with above mentioned method.
(§1) The samples were analyzed by PXRD, assay and related substances by HPLC.

[2] = Solid state stability, HPLC meloxicam co-crystal assay; assay type: physicochemical; settings: for A %: Co-former Assay % / M %: Meloxicam Assay %: samples as per Examples 1, 2, 3
Experimental: • Instrumentation: Waters HPLC system having 2695 model pump having UV/PDA detector with Empower chromatography software or its equivalent. • Column: (A) Unison UK C18 column; (B) YMC Trait C18 EXRS Column, 250×4.6 mm, 5.0 micron; (C) Water Atlantis T3, 250×4.6 mm, 5 micron. • Mobile Phase: (A) methanol-acetonitrile-dipotassium phosphate buffer; or (B) acetonitrile-Sodium sulfate buffer solution • Detection wavelength: 210 nm and 360 nm
as §1

[3] = Solid state stability, physical and chemical (PXRD and HPLC), overall finding
Experimental: as §1

[4] = Solid state stability, impurities by HPLC; assay type: physicochemical
Experimental: A Zorbax Eclipse XDB C18 column was used with the mobile phase of methanol-acetonitrile-10 mM phosphate buffer solution at the detection wavelength of 350 nm and 260 nm. • Instrumentation: Waters HPLC system having 2695 model pump having UV/PDA detector with Empower chromatography software or its equivalent. • Chemicals: Dipotassium hydrogen phosphate, orthophosphoric acid, acetonitrile, water, sodium hydroxide, methanol. • Column: Zorbax Eclipse XDB C18 column, 250×4.6 mm, 5 μm. • Elution: Gradient. • Flow rate: 0.8 mL/min.
as §1

[5] = 25° C./60% RH, 1 mo., samples as per Examples 1, 2, 3
[6] = 25° C./60% RH, 2 mo., samples as per Examples 1, 2, 3
[7] = 25° C./60% RH, 3 mo., samples as per Examples 1, 2, 3
[8] = 25° C./60% RH, Initial, samples as per Examples 1, 2, 3
[9] = 40° C./75% RH, 1 mo., samples as per Examples 1, 2, 3
[10] = 40° C./75% RH, 2 mo., samples as per Examples 1, 2, 3
[11] = 40° C./75% RH, 3 mo., samples as per Examples 1, 2, 3
[12] = 40° C./75% RH, Initial, samples as per Examples 1, 2, 3
[13] = 40° C./75% RH and 25° C./60% RH, three months
[14] = 40° C./75% RH, 1 mo., samples as per Example 7, 17 or 14
[15] = 40° C./75% RH, 2 mo., samples as per Example 7, 17 or 14
[16] = 40° C./75% RH, Initial, samples as per Example 7, 17 or 14
[17] = 25° C./60% RH, 1 mo., samples as per Example 7 or 17
[18] = 25° C./60% RH, 2 mo., samples as per Example 7 or 17
[19] = 25° C./60% RH, 3 mo., samples as per Example 7 or 17
[20] = 25° C./60% RH, Initial, samples as per Example 7 or 17
[21] = 40° C./75% RH, 3 mo., samples as per Example 7 or 17

For `CC(=O)Oc1ccccc1C(=O)O.Cc1cnc(NC(=O)C2=C(O)c3ccccc3S(=O)(=O)N2C)s1` [Meloxicam:Acetylsalicylic acid (1:1)], the PXRD [1, 5] was “S”, the PXRD [1, 6] was “S” and the PXRD [1, 7] was “S”. For the same compound, the PXRD [1, 8] was “X”, the PXRD [1, 9] was “S” and the PXRD [1, 10] was “S”. The PXRD [1, 11] was “S”, the PXRD [1, 12] was “X” and the “A %: Co-former Assay %” value ([2]; 25° C./60% RH, 1 mo.) was 33.4%. For the same compound, the “M %: Meloxicam Assay %” value ([2]; 25° C./60% RH, 1 mo.) was 66.0%, the “A %: Co-former Assay %” value ([2]; 25° C./60% RH, 2 mo.) was 33.0% and the “M %: Meloxicam Assay %” value ([2]; 25° C./60% RH, 2 mo.) was 66.0%. For the same compound, the “A %: Co-former Assay %” value ([2]; 25° C./60% RH, 3 mo.) was 33.0%, the “M %: Meloxicam Assay %” value ([2]; 25° C./60% RH, 3 mo.) was 65.7% and the “A %: Co-former Assay %” value ([2]; 25° C./60% RH, Initial) was 33.6%. For the same compound, the “M %: Meloxicam Assay %” value ([2]; 25° C./60% RH, Initial) was 65.7%, the “A %: Co-former Assay %” value ([2]; 40° C./75% RH, 1 mo.) was 33.4% and the “M %: Meloxicam Assay %” value ([2]; 40° C./75% RH, 1 mo.) was 65.9%. For the same compound, the “A %: Co-former Assay %” value ([2]; 40° C./75% RH, 2 mo.) was 32.8%, the “M %: Meloxicam Assay %” value ([2]; 40° C./75% RH, 2 mo.) was 65.8% and the “A %: Co-former Assay %” value ([2]; 40° C./75% RH, 3 mo.) was 33.0%. The “M %: Meloxicam Assay %” value ([2]; 40° C./75% RH, 3 mo.) was 65.4%, the “A %: Co-former Assay %” value ([2]; 40° C./75% RH, Initial) was 33.6% and the “M %: Meloxicam Assay %” value ([2]; 40° C./75% RH, Initial) was 65.7%. The “physical and chemical stability” value [3, 13] was “physically and chemically stable”.

For `Cc1cnc(NC(=O)C2=C(O)c3ccccc3S(=O)(=O)N2C)s1.O=C(O)c1ccccc1O` [Meloxicam:Salicylic acid Form III (1:1)], the PXRD [1, 5] was “S”, the PXRD [1, 6] was “S” and the PXRD [1, 7] was “S”. The PXRD [1, 8] was “X”, the PXRD [1, 14] was “S” and the PXRD [1, 9] was “S”. The PXRD [1, 15] was “S”, the PXRD [1, 10] was “S” and the PXRD [1, 11] was “S”. For the same compound, the PXRD [1, 16] was “X”, the PXRD [1, 12] was “X” and the “Impurities (% w/w, by HPLC) Ethyl Meloxicam” value [4, 14] was 0.003 % w/w. The “Impurities (% w/w, by HPLC) Other* (any other individual impurity)” value (shortened to “Impurities (% w/w, by HPLC) Other*”) [4, 14] was 0.01 % w/w, the “Impurities (% w/w, by HPLC) Total” value [4, 14] was 0.04 % w/w and the “Impurities (% w/w, by HPLC) Methyl Meloxicam” value [4, 15] was 0.001 % w/w. For the same compound, the “Impurities (% w/w, by HPLC) Other*” value [4, 15] was 0.01 % w/w, the “Impurities (% w/w, by HPLC) Total” value [4, 15] was 0.01 % w/w and the “Impurities (% w/w, by HPLC) Other*” value [4, 16] was 0.01 % w/w. The “Impurities (% w/w, by HPLC) Total” value [4, 16] was 0.01 % w/w, the “Meloxicam Related Compounds A, B, C, and D by HPLC” value ([4]; any timepoint from initiation up to 2 months, 40° C./75% RH) was “^#Meloxicam Related Compounds A, B, C, and D (see Table 4a) were not detectable at any timepoint from initiation up to 2 months” and the “M %: Meloxicam Assay %” value ([2]; 25° C./60% RH, 1 mo.) was 71.7%. The “A %: Co-former Assay %” value ([2]; 25° C./60% RH, 2 mo.) was 27.2%, the “M %: Meloxicam Assay %” value ([2]; 25° C./60% RH, 2 mo.) was 72.0% and the “A %: Co-former Assay %” value ([2]; 25° C./60% RH, 3 mo.) was 27.6%. For the same compound, the “M %: Meloxicam Assay %” value ([2]; 25° C./60% RH, 3 mo.) was 72.1%, the “A %: Co-former Assay %” value ([2]; 25° C./60% RH, Initial) was 27.5% and the “M %: Meloxicam Assay %” value ([2]; 25° C./60% RH, Initial) was 71.3%. The “Assay (% by HPLC) M % (Meloxicam Assay %)” value (“Assay (% by HPLC) M %” below) [2, 14] was 71.4%, the “M %: Meloxicam Assay %” value ([2]; 40° C./75% RH, 1 mo.) was 72.0% and the “Assay (% by HPLC) M %” value [2, 15] was 71.2%. The “A %: Co-former Assay %” value ([2]; 40° C./75% RH, 2 mo.) was 27.0%, the “M %: Meloxicam Assay %” value ([2]; 40° C./75% RH, 2 mo.) was 71.5% and the “A %: Co-former Assay %” value ([2]; 40° C./75% RH, 3 mo.) was 27.4%. The “M %: Meloxicam Assay %” value ([2]; 40° C./75% RH, 3 mo.) was 71.8%, the “Assay (% by HPLC) M %” value [2, 16] was 71.1% and the “A %: Co-former Assay %” value ([2]; 40° C./75% RH, Initial) was 27.5%. The “M %: Meloxicam Assay %” value ([2]; 40° C./75% RH, Initial) was 71.3%, the “physical and chemical stability” value [3, 13] was “physically and chemically stable” and the “physical and chemical stability” value ([3]; 40° C./75% RH, at least 2 months) was “physically and chemically stable”.

For `Cc1cnc(NC(=O)C2=C(O)c3ccccc3S(=O)(=O)N2C)s1.Cc1cnc(NC(=O)C2=C(O)c3ccccc3S(=O)(=O)N2C)s1.O=C(O)CCC(=O)O` [Meloxicam:Succinic acid (2:1)], the PXRD [1, 17] was “S”, the PXRD [1, 18] was “S” and the PXRD [1, 19] was “S”. The PXRD [1, 20] was “X”, the PXRD [1, 14] was “S” and the PXRD [1, 15] was “S”. For the same compound, the PXRD [1, 21] was “S”, the PXRD [1, 16] was “X” and the “Impurities (% w/w, by HPLC) Ethyl Meloxicam” value [4, 17] was “BDL”. For the same compound, the “Impurities (% w/w, by HPLC) Methyl Meloxicam” value [4, 17] was 0.01 % w/w, the “Impurities (% w/w, by HPLC) Other*” value [4, 17] was 0.03 % w/w and the “Impurities (% w/w, by HPLC) Total” value [4, 17] was 0.14 % w/w. For the same compound, the “Impurities (% w/w, by HPLC) Ethyl Meloxicam” value [4, 18] was “BDL”, the “Impurities (% w/w, by HPLC) Methyl Meloxicam” value [4, 18] was “BDL” and the “Impurities (% w/w, by HPLC) Other*” value [4, 18] was 0.03 % w/w. For the same compound, the “Impurities (% w/w, by HPLC) Total” value [4, 18] was 0.13 % w/w, the “Impurities (% w/w, by HPLC) Ethyl Meloxicam” value [4, 19] was “BDL” and the “Impurities (% w/w, by HPLC) Methyl Meloxicam” value [4, 19] was “BDL”. For the same compound, the “Impurities (% w/w, by HPLC) Other*” value [4, 19] was 0.02 % w/w, the “Impurities (% w/w, by HPLC) Total” value [4, 19] was 0.13 % w/w and the “Impurities (% w/w, by HPLC) Ethyl Meloxicam” value [4, 20] was “BDL”. The “Impurities (% w/w, by HPLC) Methyl Meloxicam” value [4, 20] was 0.01 % w/w, the “Impurities (% w/w, by HPLC) Other*” value [4, 20] was 0.03 % w/w and the “Impurities (% w/w, by HPLC) Total” value [4, 20] was 0.06 % w/w. The “Impurities (% w/w, by HPLC) Ethyl Meloxicam” value [4, 14] was “BDL”, the “Impurities (% w/w, by HPLC) Methyl Meloxicam” value [4, 14] was 0.01 % w/w and the “Impurities (% w/w, by HPLC) Other*” value [4, 14] was 0.03 % w/w. For the same compound, the “Impurities (% w/w, by HPLC) Total” value [4, 14] was 0.14 % w/w, the “Impurities (% w/w, by HPLC) Ethyl Meloxicam” value [4, 15] was “BDL” and the “Impurities (% w/w, by HPLC) Methyl Meloxicam” value [4, 15] was “BDL”. For the same compound, the “Impurities (% w/w, by HPLC) Other*” value [4, 15] was 0.03 % w/w, the “Impurities (% w/w, by HPLC) Total” value [4, 15] was 0.12 % w/w and the “Impurities (% w/w, by HPLC) Ethyl Meloxicam” value [4, 21] was “BDL”. For the same compound, the “Impurities (% w/w, by HPLC) Methyl Meloxicam” value [4, 21] was “BDL”, the “Impurities (% w/w, by HPLC) Other*” value [4, 21] was 0.01 % w/w and the “Impurities (% w/w, by HPLC) Total” value [4, 21] was 0.08 % w/w. For the same compound, the “Impurities (% w/w, by HPLC) Ethyl Meloxicam” value [4, 16] was “BDL”, the “Impurities (% w/w, by HPLC) Methyl Meloxicam” value [4, 16] was 0.01 % w/w and the “Impurities (% w/w, by HPLC) Other*” value [4, 16] was 0.03 % w/w. The “Impurities (% w/w, by HPLC) Total” value [4, 16] was 0.06 % w/w, the “Meloxicam Related Compounds A, B, C, and D by HPLC” value ([4]; any timepoint from initiation up to 3 months, 40° C./75% RH and 25° C./60% RH) was “^#Meloxicam Related Compounds A, B, C, and D (see Table 4a) were not detectable at any timepoint from initiation up to 3 months” and the “Assay (% by HPLC) M %” value [2, 17] was 85.2%. The “Assay (% by HPLC) M %” value [2, 18] was 85.1%, the “Assay (% by HPLC) M %” value [2, 19] was 84.8% and the “Assay (% by HPLC) M %” value [2, 20] was 85.1%. For the same compound, the “Assay (% by HPLC) M %” value [2, 14] was 84.8%, the “Assay (% by HPLC) M %” value [2, 15] was 83.9% and the “Assay (% by HPLC) M %” value [2, 21] was 84.9%. For the same compound, the “Assay (% by HPLC) M %” value [2, 16] was 85.1% and the “physical and chemical stability” value [3, 13] was “physically and chemically stable”.

Compound `O=C(O)CCC(=O)O` [Succinic acid] has a pKa (physchem) of -0.01.

Reference: patent US20220002283A1 (Mylan Laboratories Limited, priority 2019, published 2022)
